Test [1] addresses T1, SIRT1 (Homo sapiens, UniProt Q96EB6).
T1 construct: purchased Biomol International, Inc. / Enzo Life Sciences / BlueSky BioTech
T1 sequence (Q96EB6 1-747): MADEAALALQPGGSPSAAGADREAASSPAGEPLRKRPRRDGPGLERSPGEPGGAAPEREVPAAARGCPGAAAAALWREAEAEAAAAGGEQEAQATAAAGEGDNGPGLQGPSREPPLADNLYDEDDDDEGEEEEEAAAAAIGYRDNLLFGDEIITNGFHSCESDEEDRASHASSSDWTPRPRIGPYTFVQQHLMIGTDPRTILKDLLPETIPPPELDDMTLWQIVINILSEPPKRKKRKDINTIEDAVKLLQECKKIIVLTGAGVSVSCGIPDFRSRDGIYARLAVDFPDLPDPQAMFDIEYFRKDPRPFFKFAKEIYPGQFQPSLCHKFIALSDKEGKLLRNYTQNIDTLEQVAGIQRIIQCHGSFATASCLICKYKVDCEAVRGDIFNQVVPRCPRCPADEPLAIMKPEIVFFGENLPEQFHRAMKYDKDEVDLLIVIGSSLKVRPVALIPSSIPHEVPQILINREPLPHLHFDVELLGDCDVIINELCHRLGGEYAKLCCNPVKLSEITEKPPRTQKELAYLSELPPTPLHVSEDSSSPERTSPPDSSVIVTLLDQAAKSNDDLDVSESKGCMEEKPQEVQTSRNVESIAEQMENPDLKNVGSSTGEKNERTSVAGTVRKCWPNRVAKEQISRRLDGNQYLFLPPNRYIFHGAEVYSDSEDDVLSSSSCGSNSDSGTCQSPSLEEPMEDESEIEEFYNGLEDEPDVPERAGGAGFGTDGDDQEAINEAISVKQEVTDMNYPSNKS
As to the kind of experiment: MALDI-TOF MS deacetylation assay. Type of test: biochemical. The procedure: The assay was performed in a 20 µL reaction. 0.5 µM acetylated peptide and 120 µM NAD^+ in reaction buffer (50 mM Tris-acetate (pH 8), 137 mM NaCl, 2.7 mM KCI, 1 mM MgCl2, 5 mM DTT, 0.05 % BSA) were mixed with compound or DMSO (VC). Reactions were initiated by adding 10 nM of SIRT1. After incubation for 30 min at 37°C, reactions were stopped by formic acid and nicotinamide (f.c. 1% and 5 mM, respectively). Reactions were performed with histone H4 peptide and 1% DMSO unless stated otherwise. […]
(§1) Acetylated and deacetylated peptides were mixed at different ratios in the respective buffer including stop solution and reaction components except the enzyme. Purification, preparation and MS detection were conducted in parallel to reaction samples. CCs were generated for IC50 value determination but not for the screening.
(§2) Peptides were purified by Oasis HLB µElution Plates using a vacuum manifold [S. Sauer et al. J Chromatogr A (2004), 1049, 9-16]. Plate columns were conditioned by 70% ACN and equilibrated with 0.1% TFA. Samples were loaded, desalted by 0.1 % TFA and H2O and eluted in 70% ACN.
(§3) For ultra thin layer (UTL), supernatant of saturated CHCA in ACN / H2O (2:1) and 0.1% TFA. was mixed with isopropanol (1:3) and was spread on a ground steel target. After solvent evaporated excess of CHCA was removed from target surface with a tissue [D. Fenyo et al. J Vis Exp (2007), 192]. The matrix used for sample preparation contained saturated CHCA in ACN / 0.1% TFA (1:2) or ACN / H2O (1:2) depending on peptide size [S. L. Cohen et al. Anal Chem (1996), 68, 31-37]. HLB eluted samples and matrix were mixed (1:4) and spotted on the UTL.
(§4) Samples were measured automatically (AutoXecute software, Bruker Daltonik GmbH) using an ultraflex II MALDI-TOF mass spectrometer (Bruker Daltonik GmbH) in positive ion reflector mode. Laser power and detector gain were adjusted prior to every automatic run, which were performed in random walk movement.
(§5) For assay optimization and IC50 determination, 1000 shots were accumulated in 100 satisfactory shot steps (fuzzy control). At least one peak within a defined mass range had to fulfill the following criteria for the spectra to be accumulated: Absolute (min.) intensity: 800; S/N: 15; peak width: 0.2.
(§6) A script (Bruker Daltonik GmbH) was employed to analyze peptide peaks in a batch process (flexAnalysis software, Version 3.0, Bruker Daltonik GmbH). Percentage of de-/acetylation were calculated using the sum of the first four monoisotopic peak intensities. CC was generated by plotting experimental vs. calculated peptide acetylation. Measured sample values were interpolated with CC to determine de-/acetylation values (GraphPad Prism). When no CC was created, peak intensity ratios were generated. Verified single NP screening hits had to pass a peak ratio of ≤ 0.1 (deac/ac).
(§7) As IC50 values were not gained at initial velocity conditions, values were corrected by a conversion factor according to Wu et al. (Table 5) [G. Wu et al. J Biomol Screen (2003), 8, 694-700].

Test [2] deals with T2, p300 (Homo sapiens, UniProt Q09472).
T2 construct: purchased Biomol International, Inc. / Enzo Life Sciences
Briefly: MALDI-TOF MS acetylation assay. It is filed as biochemical. The procedure:
Reactions were started by adding 0.5 µM HAT peptide and 120 µM AcCoA and incubated for 60 min at 30°C. After incubation at 30°C for up to 60 min, reactions were stopped by formic acid (f.c. 2%). Reaction buffer consisted of 50 mM HEPES (pH 7.9), 0.1 mM EDTA and 50 µg/mL BSA.
as §1, §2, §3, §4, §5, §6, §7

For test [3], the target named is T2, p300. Briefly: radioactivity based assay (Reaction Biology Corp.). It is filed as biochemical. From the text:
IC50 for NP 9 was also validated by a radioactivity based assay, and performed by Reaction Biology Corp. (RBC).

For test [4], the system named is THP-1 cells. As to the kind of experiment: TNFalpha ELISA in LPS-treated THP-1 cells. Type of test: cell-based, human. The conditions noted are these: 10 µM, LPS for 5 hours. The procedure:
THP-1 cells were seeded in a 24-well plate (1.2 x 10^6 cells/well) in a volume of 0.4 mL. Cells were treated with 10 µM NP 9 or DMSO (VC). After 1 h, 10 ng/mL LPS (Sigma, cat.no. L5293) were added and incubated for another 5 h. Medium was separated from the cells by centrifugation and used for detection of TNFalpha release by a human TNF alpha ELISA Kit [V. M. Nayagam et al. J Biomol Screen (2006), 11, 959-967].
(In an ELISA, binding on a coated surface is turned into a signal by an enzyme label.)

Test [5] concerns the target T3, LXRα ligand binding domain (LBD) (Homo sapiens, UniProt Q13133).
T3 construct: expressed in transfected cells; host or cells: HEK-293
T3 sequence (Q13133 164-447): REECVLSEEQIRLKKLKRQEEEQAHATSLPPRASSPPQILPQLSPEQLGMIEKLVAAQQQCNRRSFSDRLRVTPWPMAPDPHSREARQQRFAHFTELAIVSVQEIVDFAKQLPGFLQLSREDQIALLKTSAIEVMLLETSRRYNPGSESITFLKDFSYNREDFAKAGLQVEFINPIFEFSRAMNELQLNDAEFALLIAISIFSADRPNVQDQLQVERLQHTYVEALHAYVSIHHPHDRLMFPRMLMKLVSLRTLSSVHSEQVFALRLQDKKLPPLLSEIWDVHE
Briefly: dual luciferase reporter gene assay with LXRα ligand binding domain in HEK-293 cells. It is filed as cell-based. The conditions noted are these: +DMSO. The procedure:
The ligand binding domain (LBD) of LXRα (amino acids 164 to 447) or LXRβ (amino acids 154 to 461) was cloned into pBIND [Renilla/Amp] vector (Promega). Selection and amplification were performed in E-coli cells. Purification of the plasmids was performed with a plasmid purification kit (Qiagen). For transfection HEK-293 cells were plated in 96-well plates (TPP) at a density of 3.5 x 10^4 cells/well for 24 h. To investigate the ligand binding on LXRα ligand binding domain, 0.04 ng of renilla luciferase coding plasmide pGL4.75 (Promega), 0.04 ng of LXRα-LBD/GAL4-DBD plasmide and 80 ng of firefly luciferase coding plasmide pGL4.31 (Promega) were used in a total volume of 200 µL for each well. In LXRβ binding assay 40 ng of LXRβ-LBD/GAL4-DBD plasmide were applied in each transfection mix. Transfection was carried out for 4 h with Lipofectamine 2000 Transfection Reagent (Invitrogen) in Opti-MEM medium (Invitrogen). Ligand treatment was performed at different concentrations for 24 h. For lysis and detection dual-luciferase reporter gene assay system (Promega) and POLARstar Omega (BMG LABTECH) were used.
Background: Reporter assays use an easily measured gene product as a stand-in for the process of interest.

For test [6], the target named is T2, p300. To be noted: literature (Balasubramanyam et al.); cited from earlier work.
The mark [7] stands for this setting: Table 3, corrected values (see Table 5), read-out: IC50 values.
Setting [8] is: corrected by conversion factor according to Wu et al., read-out: Corrected IC50.
The mark [9] stands for this setting: uncorrected, not at initial velocity conditions, read-out: Obtained IC50'.

The structures appear in SMILES notation. Where two headings read alike, the source gives them in different places.

As a reminder, the IC50 is the midpoint of a concentration-inhibition curve. In general, EC50 refers to the concentration at which the effect is half-maximal. Read a high EC50 as weaker potency.

T2 sequence (Q09472 whole entry, species assumed): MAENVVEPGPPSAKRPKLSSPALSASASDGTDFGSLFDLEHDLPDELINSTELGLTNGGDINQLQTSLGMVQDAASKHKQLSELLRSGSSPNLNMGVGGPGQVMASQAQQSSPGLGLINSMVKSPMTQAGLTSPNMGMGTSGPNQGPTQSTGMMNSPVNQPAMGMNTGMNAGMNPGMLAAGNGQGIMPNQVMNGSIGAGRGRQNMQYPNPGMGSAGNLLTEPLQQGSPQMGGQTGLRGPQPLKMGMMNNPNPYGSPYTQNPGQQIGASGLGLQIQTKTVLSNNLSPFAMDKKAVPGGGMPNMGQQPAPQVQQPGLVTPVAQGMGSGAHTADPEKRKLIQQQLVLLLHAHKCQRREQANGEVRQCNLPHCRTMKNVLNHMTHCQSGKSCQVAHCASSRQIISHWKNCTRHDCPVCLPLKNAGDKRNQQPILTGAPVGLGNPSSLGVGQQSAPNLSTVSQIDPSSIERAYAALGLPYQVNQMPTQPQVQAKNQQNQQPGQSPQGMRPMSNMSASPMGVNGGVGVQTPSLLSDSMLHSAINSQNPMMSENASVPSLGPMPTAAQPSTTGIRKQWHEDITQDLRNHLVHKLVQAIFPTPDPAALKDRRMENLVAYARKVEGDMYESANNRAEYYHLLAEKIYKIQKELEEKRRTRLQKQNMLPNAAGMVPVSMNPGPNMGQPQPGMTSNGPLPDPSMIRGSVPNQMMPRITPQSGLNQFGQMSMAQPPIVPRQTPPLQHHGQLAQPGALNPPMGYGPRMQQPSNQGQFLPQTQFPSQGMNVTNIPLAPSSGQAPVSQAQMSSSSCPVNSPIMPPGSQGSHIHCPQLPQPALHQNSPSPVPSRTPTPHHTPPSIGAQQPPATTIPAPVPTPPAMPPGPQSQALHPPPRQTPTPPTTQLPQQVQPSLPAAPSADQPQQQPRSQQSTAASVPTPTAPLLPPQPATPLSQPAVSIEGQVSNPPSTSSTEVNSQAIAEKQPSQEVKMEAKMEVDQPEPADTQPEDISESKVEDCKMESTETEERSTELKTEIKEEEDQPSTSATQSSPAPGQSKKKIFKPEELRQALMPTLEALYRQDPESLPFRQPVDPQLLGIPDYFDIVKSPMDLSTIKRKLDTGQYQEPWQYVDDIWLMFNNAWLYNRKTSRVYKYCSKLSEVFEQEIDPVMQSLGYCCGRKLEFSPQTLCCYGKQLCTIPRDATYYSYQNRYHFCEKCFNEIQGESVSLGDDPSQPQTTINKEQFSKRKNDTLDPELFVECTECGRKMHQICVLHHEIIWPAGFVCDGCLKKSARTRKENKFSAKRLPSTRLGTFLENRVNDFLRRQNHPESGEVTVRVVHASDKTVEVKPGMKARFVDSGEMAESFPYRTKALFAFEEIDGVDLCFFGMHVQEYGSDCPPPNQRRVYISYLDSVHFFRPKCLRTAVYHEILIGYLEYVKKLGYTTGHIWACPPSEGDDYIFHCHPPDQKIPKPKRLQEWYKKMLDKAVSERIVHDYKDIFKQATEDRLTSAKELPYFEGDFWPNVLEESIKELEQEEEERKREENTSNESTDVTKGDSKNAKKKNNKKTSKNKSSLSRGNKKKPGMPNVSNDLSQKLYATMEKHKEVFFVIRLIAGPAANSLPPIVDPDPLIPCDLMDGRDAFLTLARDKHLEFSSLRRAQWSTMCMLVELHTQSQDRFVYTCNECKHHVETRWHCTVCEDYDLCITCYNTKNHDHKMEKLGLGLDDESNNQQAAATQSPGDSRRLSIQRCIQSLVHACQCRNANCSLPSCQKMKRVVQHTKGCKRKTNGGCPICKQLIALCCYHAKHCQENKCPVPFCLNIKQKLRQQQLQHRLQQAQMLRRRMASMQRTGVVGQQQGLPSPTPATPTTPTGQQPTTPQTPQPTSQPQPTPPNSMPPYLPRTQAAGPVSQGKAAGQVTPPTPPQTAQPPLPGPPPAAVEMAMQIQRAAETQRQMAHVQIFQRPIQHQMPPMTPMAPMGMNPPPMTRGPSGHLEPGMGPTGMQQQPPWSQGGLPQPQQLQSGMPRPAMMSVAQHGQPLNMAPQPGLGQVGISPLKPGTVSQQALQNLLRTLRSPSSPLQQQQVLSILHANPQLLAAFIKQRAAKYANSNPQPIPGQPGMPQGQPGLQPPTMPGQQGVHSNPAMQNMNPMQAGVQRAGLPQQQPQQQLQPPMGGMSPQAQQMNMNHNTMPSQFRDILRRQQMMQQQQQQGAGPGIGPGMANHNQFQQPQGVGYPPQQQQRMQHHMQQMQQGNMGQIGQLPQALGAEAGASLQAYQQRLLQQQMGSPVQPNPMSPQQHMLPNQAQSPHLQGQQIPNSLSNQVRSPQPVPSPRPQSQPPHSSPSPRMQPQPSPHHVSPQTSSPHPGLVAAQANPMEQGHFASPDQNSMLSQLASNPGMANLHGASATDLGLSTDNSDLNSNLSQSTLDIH

In the case of `O=C1CC(c2ccccc2)Oc2c(Cc3cccc(O)c3O)c(O)c(Cc3cccc(O)c3O)c(O)c21` (stereo not shown) [NP 4, 6,8-bis(2,3-dihydroxybenzyl)-5,7-dihydroxy-2-phenylchroman-4-one], the IC50 in test [1] (setting [7]) came to 46 ± 4 µM; in test [1] (setting [8]), 46 ± 4 µM; in test [1] (setting [9]) it was 63 ± 5 µM.
`O=c1cc(-c2ccc(O)c(-c3c(O)cc(O)c4c(=O)cc(-c5ccc(O)cc5)oc34)c2)oc2cc(O)cc(O)c12` [NP 3, 8-(5-(5,7-dihydroxy-4-oxo-4H-chromen-2-yl)-2-hydroxyphenyl)-5,7-dihydroxy-2-(4-hydroxyphenyl)-4H-chromen-4-one]: the values for the IC50 in test [1] (setting [7]), in test [1] (setting [8]) and in test [1] (setting [9]) were 36 ± 6 µM, 36 ± 6 µM and 50 ± 8 µM, respectively.
As to `CC(C)=CCc1c(O)cc(O)c2c(=O)c(O)c(-c3ccc(O)c(O)c3)oc12` [NP 9, 2-(3,4-dihydroxyphenyl)-3,5,7-trihydroxy-8-(3-methylbut-2-enyl)-4H-chromen-4-one], the IC50 in test [2] (MALDI MS assay, read-out: IC50 value) was 1.71 µM; in test [2] (setting [8]) it was 1.71 ± 0.07 µM; in test [2] (setting [9]), 2.35 ± 0.09 µM; in test [3], 2.1 µM. Also, the “times stronger than anacardic acid” value in test [2] (p300 IC50 comparison) was “about 4 times”. The “times stronger than garcinol” value in test [2] (p300 IC50 comparison) is given as “about 3.5 times”. Moreover, in test [4], the “levels of TNFα secreted” value is given as “significant anti-inflammatory effects by reducing the levels of TNFα”.
In test [5] (LXRα reporter gene activation), `CC(C)CC[C@@H](O)[C@@H](C)[C@H]1CC[C@H]2[C@@H]3CC=C4C[C@@H](O)CC[C@]4(C)[C@H]3CC[C@]12C` [22R, 22(R)-hydroxycholesterol] yielded an EC50 of 13.3 µM. For the same compound, the Efficacy in test [5] (reporter gene transcription vs. T09) stood at 4%.
In the case of `COc1c(-c2c(O)cc(O)c3c(=O)cc(-c4ccc(O)cc4)oc23)c(O)cc2oc(-c3ccc(O)cc3)cc(=O)c12` [NP 2, 5',7,7'-trihydroxy-2,2'-bis(4-hydroxyphenyl)-5-methoxy-6,8'-bi(4H-chromene)-4,4'-dione], the IC50 in test [1] (setting [7]) came to 28 ± 9 µM; in test [1] (setting [8]), 28 ± 9 µM; in test [1] (setting [9]), 39 ± 13 µM.
Turning to `COC1C(OC(N)=O)C(O)C(Oc2ccc(-c3coc4cc(O)cc(O)c4c3=O)cc2)OC1(C)C` (stereo not shown) [NP 5, 6-(4-(5,7-dihydroxy-4-oxo-4H-chromen-3-yl)phenoxy)-5-hydroxy-3-methoxy-2,2-dimethyl-tetrahydro-2H-pyran-4-yl carbamate], the IC50 worked out at 49 ± 3 µM in test [1] (setting [7]), 49 ± 3 µM in test [1] (setting [8]) and 68 ± 4 µM in test [1] (setting [9]).
In the case of `CCCCCCCCCCCCCCCc1cccc(O)c1C(=O)O` [anacardic acid], the half-inhibitory concentration (IC50) in test [6] was 8.5 µM.

The values above are taken from EP2759295A1, “Foam cell specific Liver X Receptor (LXR) alpha agonist, SIRT1 inhibitors as well as p300 inhibitors as pharmaceutically active agents” (Max-Planck-Gesellschaft zur Förderung der Wissenschaften …, priority 2013, dated 2014).
